Source: US20040067593A1, “Electron paramagnetic resonance method for diagnosis of active nephritis” (priority 2000, published 2004)

Tests used:
Solubility of spin trap = format: physicochemical
[1] = Effect of sulphite on the EPR signal of the DBNBS radical cation (DBNBS reacted with plasma or urine); design: species or system human
Protocol: The characteristic spectrum of DBNBS-SO3^●− was a 9 line signal with an aN=1.32 mT and aH=0.06 mT (FIG. 8). This was obtained by reacting DBNBS with hydrogen peroxide and horseradish peroxidase. The addition of 10 mM sulphite to the reaction mixture caused the signal to increase by over 100 fold in intensity. The signal could also be obtained by reacting DBNBS with sulphite alone. However, when the DBNBS was reacted with the plasma of patients with renal failure and the urine from a normal individual, only the 3 line signal with an aN=1.32 mT was seen (FIGS. 7 & 9, respectively). The hydrogen hyperfine splitting seen in the spectrum of DBNBS-SO3^●− was absent. […] Therefore, we confirmed that DBNBS-SO3^●− and the DBNBS radical cation generated by renal patients' plasma or normal urine were completely different radicals.
Addition of sulphite to the mixture of DBNBS and plasma or urine decreased the signal height of the DBNBS radical cation. This could affect the determination of the oxidant in biological samples if there was sulphite contamination in the DBNBS preparation or endogenous sulphite in the biological sample itself. Therefore the dose response effect on addition of sulphite to the reaction mixture was investigated. […]

Compound	solubility compared with DBNBS (Solubility of spin trap)	reduction in the signal height of the DBNBS radical cation ([1]; 0.08 mM of sulphite in the reaction mixture)	reduction in the signal height of the DBNBS radical cation ([1]; final concentration of 0.4 mM sulphite in the reaction mixture)
O=Nc1c(Cl)cc(S(=O)(=O)O)cc1Cl [DCNBS, 3,5-dichloro-4-nitrosobenzene sulphonate]	better solubility		
O=S([O-])[O-].[K+].[K+] [sulphite, dipotassium sulphite]		1.4%	6.1%
